In PubChem BioAssay AID1745844 (Carcinogenic Potency Database (CPDB), 2022) one finds carcinogen call and TD50 data, which are given here for six molecules.

Broadly, the TD50 is the 50% point of the dose-response relation for the toxic effect studied.

“And” between values parts separate entries of the source, which are not always exact repeats. Identical values can stand only once. The source made the active and inactive calls. The rule behind the calls is not given here.

This data set relates to rodent lifetime carcinogenesis bioassay, tumor incidence TD50. Briefly: carcinogenic potency in animals, long-term in vivo studies, CPDB compilation (AID 1745844).

In the case of `F`, the carcinogen call was “negative (inactive)” (mouse, strain B6C3F1, females, in drinking water, site: any site (literature study), lesion: several types, types named in the paper, dosed 103 weeks, study length 104 weeks); “negative (inactive)” (mouse, strain B6C3F1, males, in drinking water, site: any site (literature study), lesion: several types, types named in the paper, dosed 103 weeks, study length 104 weeks); “negative (inactive)” (mouse, strain Charles River CD1, both sexes, in drinking water, site: any site (literature study), lesion: malignant tumor, dosed 129 weeks, study length 129 weeks); “negative (inactive)” (mouse, strain Charles River CD1, both sexes, in drinking water, site: any site (literature study), lesion: one or several types, types not named, dosed 129 weeks, study length 129 weeks); “negative (inactive)” (mouse, strain Charles River CD1, both sexes, in drinking water, site: liver, lesion: one or several types, types not named, dosed 129 weeks, study length 129 weeks); “negative (inactive)” (mouse, strain Charles River CD1, both sexes, in drinking water, site: lung, lesion: one or several types, types not named, dosed 129 weeks, study length 129 weeks). Also, for the setting “mouse, strain DBA, females, in feed, site: mammary gland, lesion: carcinoma, dosed 90 weeks, study length 90 weeks”, the carcinogen call was “negative (inactive)”. Further, the TD50 was 73.9 mg/kg/day (inactive) (rat, strain Fischer 344, females, in drinking water, site: any site (literature study), lesion: several types, types named in the paper, dosed 103 weeks, study length 104 weeks); 147 mg/kg/day (rat, strain Fischer 344, males, in drinking water, site: any site (literature study), lesion: several types, types named in the paper, dosed 103 weeks, study length 104 weeks); 82.7 mg/kg/day (rat, strain Fischer 344, males, in drinking water, site: coccyx + humerus + subcutaneous tissue + vertebra, lesion: osteosarcoma, dosed 103 weeks, study length 104 weeks); 109 mg/kg/day (rat, strain Fischer 344, males, in drinking water, site: coccyx + humerus + vertebra, lesion: osteosarcoma, dosed 103 weeks, study length 104 weeks).

Turning to `O=C(O)c1cccnc1`, the carcinogen call is “negative (inactive)” (mouse, strain Swiss albino, females, in drinking water, site: liver, lesion: several types, types named in the paper, dosed 139 weeks, study length 139 weeks); “negative (inactive)” (mouse, strain Swiss albino, males, in drinking water, site: liver, lesion: several types, types named in the paper, dosed 119 weeks, study length 119 weeks); “negative (inactive)” (mouse, strain Swiss albino, males, in drinking water, site: lung, lesion: one or several types, types not named, dosed 119 weeks, study length 119 weeks). Moreover, for the setting “mouse, strain Swiss albino, females, in drinking water, site: lung, lesion: one or several types, types not named, dosed 139 weeks, study length 139 weeks”, the TD50 is 17000 mg/kg/day (inactive).

`CCN=[N+](C)[O-]`: the TD50 is, setting by setting: (rat, strain Fischer 344, males, in drinking water, site: kidney, lesion: several types, types named in the paper, dosed 30 weeks, study length 95 weeks) 123 mg/kg/day; (rat, strain Fischer 344, males, in drinking water, site: liver, lesion: hemangiosarcoma, dosed 30 weeks, study length 95 weeks) 302 mg/kg/day; (rat, strain Fischer 344, males, in drinking water, site: liver, lesion: hepatocellular carcinoma, dosed 30 weeks, study length 95 weeks) 18.2 mg/kg/day; (rat, strain Fischer 344, males, in drinking water, site: liver, lesion: neoplastic nodule, dosed 30 weeks, study length 95 weeks) 664 mg/kg/day; (rat, strain Fischer 344, males, in drinking water, site: liver, lesion: several types, types named in the paper, dosed 30 weeks, study length 95 weeks) 11.5 mg/kg/day.

As to `FC(F)(Cl)Cl`, the TD50 was 4100 mg/kg/day (inactive) (mouse, strain Swiss, females, inhaled, site: all sites, lesion: leukemia, dosed 78 weeks, study length 104 weeks); 3320 mg/kg/day (inactive) (mouse, strain Swiss, females, inhaled, site: any site (literature study), lesion: malignant tumor, dosed 78 weeks, study length 104 weeks); 59000 mg/kg/day (inactive) (mouse, strain Swiss, females, inhaled, site: any site (literature study), lesion: several types, types named in the paper, dosed 78 weeks, study length 104 weeks); 91900 mg/kg/day (inactive) (mouse, strain Swiss, females, inhaled, site: lung, lesion: adenoma, dosed 78 weeks, study length 104 weeks); 33100 mg/kg/day (inactive) (mouse, strain Swiss, males, inhaled, site: any site (literature study), lesion: malignant tumor, dosed 78 weeks, study length 104 weeks); 12100 mg/kg/day (inactive) (mouse, strain Swiss, males, inhaled, site: any site (literature study), lesion: several types, types named in the paper, dosed 78 weeks, study length 104 weeks). For the same molecule, the TD50 runs as follows: (mouse, strain Swiss, males, inhaled, site: lung, lesion: adenoma, dosed 78 weeks, study length 104 weeks) 41900 mg/kg/day (inactive); (rat, strain Sprague-Dawley, females, inhaled, site: liver, lesion: angiosarcoma, dosed 104 weeks, study length 104 weeks) 31300 mg/kg/day (inactive); (rat, strain Sprague-Dawley, males, inhaled, site: adrenal gland, lesion: pheochromocytoma, dosed 104 weeks, study length 104 weeks) 1320 mg/kg/day (inactive); (rat, strain Sprague-Dawley, males, inhaled, site: any site (literature study), lesion: several types, types named in the paper, dosed 104 weeks, study length 104 weeks) 555 mg/kg/day (inactive). Also, the carcinogen call reads like this: (rat, strain Sprague-Dawley, females, inhaled, site: any site (literature study), lesion: malignant tumor, dosed 104 weeks, study length 104 weeks) “negative (inactive)”; (rat, strain Sprague-Dawley, females, inhaled, site: any site (literature study), lesion: several types, types named in the paper, dosed 104 weeks, study length 104 weeks) “negative (inactive)”; (rat, strain Sprague-Dawley, males, inhaled, site: any site (literature study), lesion: malignant tumor, dosed 104 weeks, study length 104 weeks) “negative (inactive)”; (rat, strain Sprague-Dawley, males, inhaled, site: liver, lesion: angiosarcoma, dosed 104 weeks, study length 104 weeks) “negative (inactive)”.

In the case of `O=C(O)c1ccc(N=Nc2ccc(O)c(C(=O)O)c2)cc1`, the TD50 by setting is: (mouse, strain NMRI, females, in feed, site: all sites, lesion: lymphoma, dosed 107 weeks, study length 107 weeks) 1200 mg/kg/day (inactive); (mouse, strain NMRI, females, in feed, site: lung, lesion: alveolar/bronchiolar adenoma, dosed 107 weeks, study length 107 weeks) 2650 mg/kg/day (inactive); (mouse, strain NMRI, males, in feed, site: liver, lesion: hepatocellular adenoma, dosed 120 weeks, study length 120 weeks) 35200 mg/kg/day (inactive); (mouse, strain NMRI, males, in feed, site: liver, lesion: hepatocellular carcinoma, dosed 120 weeks, study length 120 weeks) 19500 mg/kg/day (inactive); (mouse, strain NMRI, males, in feed, site: lung, lesion: alveolar/bronchiolar adenocarcinoma, dosed 120 weeks, study length 120 weeks) 14300 mg/kg/day (inactive); (mouse, strain NMRI, males, in feed, site: lung, lesion: alveolar/bronchiolar adenoma, dosed 120 weeks, study length 120 weeks) 13000 mg/kg/day (inactive). Moreover, the TD50 (rat, strain Sprague-Dawley, males, in feed, site: thyroid gland, lesion: follicular-cell adenoma, dosed 118 weeks, study length 118 weeks) is 15300 mg/kg/day. In addition, the carcinogen call is “negative (inactive)” (mouse, strain NMRI, females, in feed, site: liver, lesion: hepatocellular adenoma, dosed 107 weeks, study length 107 weeks); “negative (inactive)” (mouse, strain NMRI, females, in feed, site: lung, lesion: alveolar/bronchiolar adenocarcinoma, dosed 107 weeks, study length 107 weeks); “negative (inactive)” (rat, strain Sprague-Dawley, females, in feed, site: liver, lesion: hepatocellular tumor, dosed 119 weeks, study length 119 weeks); “negative (inactive)” (rat, strain Sprague-Dawley, males, in feed, site: liver, lesion: hepatocellular adenoma, dosed 118 weeks, study length 118 weeks); “negative (inactive)” (rat, strain Sprague-Dawley, males, in feed, site: liver, lesion: hepatocellular carcinoma, dosed 118 weeks, study length 118 weeks).

With `Cc1ccc(N)c(C)c1`, the TD50 was 12.2 mg/kg/day (mouse, strain CD-1 HaM/ICR, females, in feed, site: any site (literature study), lesion: several types, types named in the paper, dosed 77 weeks, study length 90 weeks); 12.4 mg/kg/day and 13.5 mg/kg/day (mouse, strain CD-1 HaM/ICR, females, in feed, site: lung, lesion: several types, types named in the paper, dosed 77 weeks, study length 90 weeks); 646 mg/kg/day (inactive) (mouse, strain CD-1 HaM/ICR, males, in feed, site: any site (literature study), lesion: several types, types named in the paper, dosed 77 weeks, study length 90 weeks); 65.4 mg/kg/day (inactive) (mouse, strain CD-1 HaM/ICR, males, in feed, site: liver, lesion: several types, types named in the paper, dosed 77 weeks, study length 90 weeks); 16.8 mg/kg/day (inactive) (rat, strain Charles River CD (Sprague-Dawley), males, in feed, site: any site (literature study), lesion: several types, types named in the paper, dosed 77 weeks, study length 98 weeks); 260 mg/kg/day (inactive) (rat, strain Charles River CD (Sprague-Dawley), males, in feed, site: liver, lesion: several types, types named in the paper, dosed 77 weeks, study length 98 weeks). Also, the carcinogen call by setting is: (mouse, strain CD-1 HaM/ICR, females, in feed, site: liver, lesion: several types, types named in the paper, dosed 77 weeks, study length 90 weeks) “negative (inactive)”; (mouse, strain CD-1 HaM/ICR, males, in feed, site: lung, lesion: several types, types named in the paper, dosed 77 weeks, study length 90 weeks) “negative (inactive)”.
